Test results from patent US11707503B2, “Modulators of complement activity” (Ra Pharmaceuticals, Inc., priority 2015, dated 2023).
Starred links: 1 amine or outer side, 2 acyl side, 3 side chain; linkers in the order of their positions; H or OH if unused. Positions of bridges follow the written chain, without caps; N, C: chain ends. Non-standard residues stand in square brackets, D forms with d. Residues, ends and D or L forms follow the SMILES beside them. Trp(7-aza) = N[C@@H](Cc1c[nH]c2ncccc12)C(=O)O; pXylylene = c1cc(C[*:2])ccc1C[*:1]; Phg = N[C@H](C(=O)O)c1ccccc1; NMeS = CN[C@@H](CO)C(=O)O; Nva = CCC[C@H](N)C(=O)O

Tests used:
[1] = Compound stability in human plasma; assay type: in vitro ADME
Protocol: Compounds were assayed for stability in human plasma under the following conditions. Human plasma was obtained from Bioreclamation (Westbury, N.Y.) and collected in sodium heparin. Plasma was adjusted to pH 7.4. DMSO stocks at 10 mM concentration were prepared for the test compounds. Aliquots of the DMSO solutions were dosed into 1 mL of plasma, which had been pre-warmed to 37° C., at a final test compound concentration of 10 μM. The vials were kept in a benchtop THERMOMIXER® (Eppendorf, Hauppauge, N.Y.) for the duration of the experiment. Aliquots (100 μL) were taken at each timepoint and added to a 96-well plate that had been pre-filled with 300 μL of an acetonitrile solution containing mixture of the internal standards (metoprolol, propranolol and warfarin each at 500 ng/mL). […] Aliquots of the supernatant were removed and analyzed by LC-HRAMS.

[2] = target: T1, C5 (Homo sapiens, UniProt P01031); assay: Competitive fluorescence polarization (FP) binding assay with probe R3076; design: purchased Complement Technology, Tyler, Tex
Protocol: FP was used for screening competitive polypeptide inhibitors of the C5 protein. […] The BODIPY-TMR dye attached to the C-terminal lysine of the protein and the subsequent labeled probe was purified by HPLC.
Human C5 protein was diluted to 200 nM in assay buffer, composed of TBS (EMD Millipore, Billerica, Mass.)+0.005% Triton-X (Sigma, Saint Louis, Mo.). 10 μl of assay buffer was added to all wells of a black, non-binding, 384-well assay plate (Greiner, Monroe, N.C.) and 10 μl of diluted C5 protein stock was added to experimental and designated control wells.
Probe R3076 (SEQ ID NO: 40) was diluted 1 to 10 in DMSO (Life Technologies, Grand Island, N.Y.) and 30 μl of that stock was diluted in 3 ml of assay buffer to yield a 100 nM stock. 10 μl of this working stock was then added to each well in the assay plate. The assay plate was incubated at room temperature, protected from light, for 20 minutes to allow binding to reach equilibrium.
Test articles listed in Table 7 were subsequently diluted in DMSO then assay buffer, comprising 10 2-fold dilutions and were then added to the assay plate in triplicate, rapidly. The assay plate was then incubated in the Paradigm (Molecular Devices, Sunnyvale, Calif.) plate reader for 60 minutes at 25° C.
After incubation for 60 minutes, the plate was read using the Paradigm FP protocol (Molecular Devices, Sunnyvale, Calif.) and raw polarization values were imported into Graphpad Prism.

[3] = tested on: primate C5 protein; assay: Ex vivo hemolysis assay with cynomolgus plasma; assay type: cell-based, cynomolgus monkey
Protocol: At each time-point, the hemolytic activity was determined as an indicator of active serum complement (see FIG. 4).

[4] = Pharmacokinetic studies in rat (IV and SC); details: SC 30 mg/kg, combined R3152 and R3201
Excerpt: In the figure, circles represent concentrations obtained after SC dose and squares represent concentrations obtained after IV dose.
Blood samples were collected at indicated time points, processed into plasma, and analyzed for the indicated compound by LC-MS. […] Blood samples were collected at indicated time points, processed into plasma, and analyzed for the indicated compound by LC-MS.

[5] = tested on: rat C5; assay: Ex vivo hemolysis assays, rat PK study; assay type: cell-based; details: rat plasma after dosing
[6] = tested on: rat C5; assay: Binding to rat C5 (statement)
[7] = 3 mg/kg IV, cynomolgus monkey
[8] = target: T1, C5; assay: Human hemolysis assay (RBC lysis assay using complete human sera); assay type: cell-based; design: with complete human sera (Complement Technology, Tyler Tex.) and polypeptides; tissue Complement Technology, Tyler Tex; host or cells: complete human serum; details: compounds tested in in vivo studies; average IC50, assay and unit inferred
Protocol: Polypeptides listed in Table 3, as well as their optimized derivatives (see Table 4) were assessed for inhibitor activity using a red blood cell hemolysis assay. […] Human sera was rapidly thawed at 37° C. and then stored on ice until diluted into GVB++. Ten 6-fold serial dilutions of polypeptides (10 mM stock, DMSO) were performed in DMSO and then added to buffer. 50 μl of each polypeptide dilution was combined with sera and 100 μl of cells in individual wells of a 96-well tissue culture-treated clear microtitre plate (USA Scientific, Ocala, Fla.) and resuspended by pipetting. Samples were incubated at 37° C. for one hour. […] Data was fit with a log-logit formula producing a dose-response curve and IC50. As used herein, the term “IC50” refers to the half maximal inhibitory concentration, a value used to indicate the amount of the inhibitor needed to reduce a given reaction or process by half.
The human constant light chain kappa and IgG2 constant heavy chain sequences were used for the constants regions of the antibody. This antibody was expressed from human embryonic kidney cells (HEK293) and purified by Protein A affinity chromatography. […] Human sera was rapidly thawed at 37° C. and then stored on ice until diluted into GVB++. Ten 6-fold serial dilutions of each compound (10 mM stock, DMSO) were performed in DMSO and then added to buffer. 50 μl of each compound dilution was combined with sera and 100 μl of cells in individual wells of a 96-well tissue culture-treated clear microtitre plate (USA Scientific, Ocala, Fla.) and resuspended by pipetting. Samples were incubated at 37° C. for one hour. […] Data was fit with a log-logit formula producing a dose-response curve and IC50 (see FIG. 11A).

T1 sequence (P01031 678-1676 limits assumed): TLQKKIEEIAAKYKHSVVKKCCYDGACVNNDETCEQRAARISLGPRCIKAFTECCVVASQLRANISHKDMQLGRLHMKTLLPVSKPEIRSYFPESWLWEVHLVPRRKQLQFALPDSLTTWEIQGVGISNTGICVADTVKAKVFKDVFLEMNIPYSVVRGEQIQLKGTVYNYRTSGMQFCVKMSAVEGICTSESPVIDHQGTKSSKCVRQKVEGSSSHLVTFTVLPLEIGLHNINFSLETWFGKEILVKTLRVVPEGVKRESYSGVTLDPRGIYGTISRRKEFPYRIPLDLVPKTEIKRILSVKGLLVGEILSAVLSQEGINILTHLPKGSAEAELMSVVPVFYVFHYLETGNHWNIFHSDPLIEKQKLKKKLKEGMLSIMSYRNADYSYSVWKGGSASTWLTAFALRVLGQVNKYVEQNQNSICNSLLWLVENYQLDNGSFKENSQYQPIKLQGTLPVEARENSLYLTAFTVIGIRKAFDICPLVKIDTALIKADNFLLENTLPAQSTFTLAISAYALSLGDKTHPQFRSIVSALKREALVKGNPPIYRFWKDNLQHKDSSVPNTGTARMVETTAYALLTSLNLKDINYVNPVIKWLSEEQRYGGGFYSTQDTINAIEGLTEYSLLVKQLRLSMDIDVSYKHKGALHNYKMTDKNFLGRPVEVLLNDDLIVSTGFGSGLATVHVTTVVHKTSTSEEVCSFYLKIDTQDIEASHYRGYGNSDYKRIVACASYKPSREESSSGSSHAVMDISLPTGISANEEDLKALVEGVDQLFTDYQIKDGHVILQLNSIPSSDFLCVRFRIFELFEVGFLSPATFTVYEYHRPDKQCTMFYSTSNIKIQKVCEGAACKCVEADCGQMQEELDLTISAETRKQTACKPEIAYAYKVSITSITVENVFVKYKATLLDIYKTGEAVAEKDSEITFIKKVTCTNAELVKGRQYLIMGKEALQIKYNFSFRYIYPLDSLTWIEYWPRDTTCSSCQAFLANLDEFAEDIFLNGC
T1 sequence (P01031 19-673 limits assumed): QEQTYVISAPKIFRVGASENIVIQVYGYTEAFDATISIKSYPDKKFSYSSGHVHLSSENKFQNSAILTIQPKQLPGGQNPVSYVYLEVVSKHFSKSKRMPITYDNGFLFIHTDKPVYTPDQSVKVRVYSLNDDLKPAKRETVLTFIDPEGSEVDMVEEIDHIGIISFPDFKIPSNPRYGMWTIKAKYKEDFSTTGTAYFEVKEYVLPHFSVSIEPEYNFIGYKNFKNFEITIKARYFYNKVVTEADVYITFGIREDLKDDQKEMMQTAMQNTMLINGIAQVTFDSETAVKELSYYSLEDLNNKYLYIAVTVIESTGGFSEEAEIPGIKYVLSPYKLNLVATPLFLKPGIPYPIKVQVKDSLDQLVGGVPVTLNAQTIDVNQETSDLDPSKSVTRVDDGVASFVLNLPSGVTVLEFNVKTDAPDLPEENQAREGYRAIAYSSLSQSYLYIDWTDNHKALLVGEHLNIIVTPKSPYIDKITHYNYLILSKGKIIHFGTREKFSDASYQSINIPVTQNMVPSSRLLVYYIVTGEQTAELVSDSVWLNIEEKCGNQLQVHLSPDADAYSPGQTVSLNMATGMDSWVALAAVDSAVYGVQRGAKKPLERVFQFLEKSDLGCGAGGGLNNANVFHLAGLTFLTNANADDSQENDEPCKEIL

stability in human plasma in words [1]	Percent remaining at time 0 hrs ([1]; 37° C., 10 μM, 0 hrs)	competition for / affinity for C5 in words [2]	Compound	time after dosing at which hemolytic activity returned to normal levels ([3]; 3 mg/kg IV, plasma levels fell below 100 ng/ml)	plasma concentration with clear inhibition of complement-mediated hemolysis ([3]; ex vivo, plasma diluted 1:100, after 3 mg/kg IV)	bioavailability of dose, based on AUC [4]	inhibitory activity in ex vivo hemolysis assays [5]	binding to rat C5 [6]	average AUC∞ [7]	mean clearance rate [7]	mean terminal half-life [7]	mean volume of distribution [7]	IC50 [8]
highly stable	100%	relatively strong affinity	CCC[C@H](NC(=O)[C@@H]1CSCc2ccc(cc2)CSC[C@H](NC(=O)[C@H](CCC)NC(C)=O)C(=O)N[C@@H](c2ccccc2)C(=O)N[C@@H]([C@@H](C)O)C(=O)N[C@@H](Cc2c[nH]c3ncccc23)C(=O)N[C@@H](CCC(=O)O)C(=O)N[C@@H](Cc2ccc(O)cc2)C(=O)N(C)[C@@H](CO)C(=O)N[C@@H](Cc2c[nH]cn2)C(=O)N1)C(N)=O [Compound R3050, [pXylyl(2,10)]Ac-Nvl-C-Phg-T-azaTrp-E-Y-(N—Me)S-H-C-Nvl-NH2] (Ac-[Nva]C[Phg]T[Trp(7-aza)]EY[NMeS]HC[Nva]-NH2; linker 2-10 via pXylylene)										
			CCC[C@H](NC(=O)[C@@H](NC(=O)[C@@H]1CCCN1C(=O)[C@H](Cc1ccc(O)cc1)NC(=O)[C@H](CCC(=O)O)NC(=O)[C@H](Cc1c[nH]c2ncccc12)NC(=O)[C@H](Cc1ccc(O)cc1)NC(=O)[C@@H](NC(=O)[C@H](CC(=O)O)NC(=O)[C@@H]1CSCc2cccc(c2)CSC[C@H](NC(C)=O)C(=O)N[C@@H](C(C)C)C(=O)N[C@@H](CCC(=O)O)C(=O)N[C@@H](CCCNC(=N)N)C(=O)N[C@@H](Cc2ccccc2)C(=O)N1)C(C)(C)C)C1CCCCC1)C(N)=O [Compound R3152, [mXylyl(1,6)]Ac-C-V-E-R-F-C-D-Tbg-Y-azaTrp-E-Y-P-Chg-Nvl-NH2]	48 h	> 200 ng/mL	approximately 65%	very little inhibitory activity	do not bind	23319 ± 2120 ng·h/mL	2.15 ± 0.203 mL/min/kg	10.9 ± 0.8 h	1.49 ± 0.152 L/kg	
			CCC[C@H](NC(=O)[C@@H](NC(=O)[C@@H]1CCCN1C(=O)[C@H](Cc1ccc(O)cc1)NC(=O)[C@H](CCC(=O)O)NC(=O)[C@H](Cc1c[nH]c2ncccc12)NC(=O)[C@H](Cc1ccc(O)cc1)NC(=O)[C@@H](NC(=O)[C@H](CC(=O)O)NC(=O)[C@@H]1CSCc2cccc(c2)CSC[C@H](NC(C)=O)C(=O)N[C@@H](C(C)C)C(=O)N[C@@H](CCC(=O)O)C(=O)N[C@@H](CCCNC(=N)N)C(=O)N[C@@H](Cc2ccccc2)C(=O)N1)C(C)(C)C)C1CCCCC1)C(=O)O [Compound R3201, [mXylyl(1,6)]Ac-C-V-E-R-F-C-D-Tbg-Y-azaTrp-E-Y-P-Chg-Nvl]					do not bind					7.7 nM
